Measurements: ChEMBL document CHEMBL1140353, “Structure-activity relationships of 1-alkyl-5-(3,4-dichlorophenyl)-5-{2-[3-(substituted)-1-azetidinyl]-ethyl}-2-piperidones. Part 2: Improving oral absorption” (Bioorg Med Chem Lett, 2005)

Tested on: not listed separately
Test: Oral absorption of 10 mg/kg tested in rat
Assay type: ADME, organism-based
Parameters: dose 10 mg/kg
Settings: in vivo, read-out: Absorption
In the case of `NS(=O)(=O)N1CCN(C2CN(CC[C@]3(c4ccc(Cl)c(Cl)c4)CCC(=O)N(CC4CC4)C3)C2)CC1`, the Fa is reported as less than 20%.

Tested on: not listed separately
Test: Oral absorption of 20 mg/kg tested in rat
Assay type: ADME, organism-based
Parameters: dose 20 mg/kg
Settings: in vivo, read-out: Absorption
In the case of `O=C1CC[C@](CCN2CC(N3CCC(F)CC3)C2)(c2ccc(Cl)c(Cl)c2)CN1CC1CCC(F)(F)CC1`, the Fa is reported as greater than 80%.

Tested on: not listed separately
Test: In vivo clearance of […] mg/kg of compound tested in human
Assay type: ADME, organism-based
Settings: 10 mg/kg
In the case of `NS(=O)(=O)N1CCN(C2CN(CC[C@]3(c4ccc(Cl)c(Cl)c4)CCC(=O)N(CC4CC4)C3)C2)CC1`, the clearance is reported as less than 3 mL/min/kg.

Species on record: Homo sapiens
Test: Ratio of apical basolateral (A-B) and basolateral apical (B-A) determined by Caco-2 assay in human (ER<2)
Assay type: ADME
Settings: not given
For `CS(=O)(=O)N1CCN(C2CN(CC[C@]3(c4ccc(Cl)c(Cl)c4)CCC(=O)N(CC4CC4)C3)C2)CC1`, the Caco-2 permeability was 10 % hr-1.

Target: T1, Substance-K receptor (Homo sapiens, UniProt P21452)
T1 sequence (P21452 whole entry): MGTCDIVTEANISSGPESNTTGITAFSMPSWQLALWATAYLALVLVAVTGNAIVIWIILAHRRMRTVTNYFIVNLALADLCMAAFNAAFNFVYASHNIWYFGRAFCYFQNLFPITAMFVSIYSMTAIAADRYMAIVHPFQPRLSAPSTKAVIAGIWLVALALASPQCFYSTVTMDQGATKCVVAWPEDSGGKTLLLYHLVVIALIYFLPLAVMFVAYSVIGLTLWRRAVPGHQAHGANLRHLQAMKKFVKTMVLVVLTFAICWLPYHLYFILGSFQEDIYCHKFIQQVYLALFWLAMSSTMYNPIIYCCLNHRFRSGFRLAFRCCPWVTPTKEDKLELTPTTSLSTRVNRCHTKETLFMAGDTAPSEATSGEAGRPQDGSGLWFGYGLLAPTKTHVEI
Test: pKi for human Neurokinin 2 receptor
Settings: not given
`O=C1CC[C@](CCN2CC(N3CCC(F)CC3)C2)(c2ccc(Cl)c(Cl)c2)CN1C1(C2CC2)CCCC1` showed a pKi of 10. With `O=C1CC[C@](CCN2CC(N3CCOCC3)C2)(c2ccc(Cl)c(Cl)c2)CN1C1(C2CC2)CCCC1` the pKi was 9.5.

Species on record: Homo sapiens
Test: Ratio of apical basolateral (A-B) and basolateral apical (B-A) determined by Caco-2 assay in human (ER=1)
Assay type: ADME
Settings: not given
Molecule `CCOC1CCN(C2CN(CC[C@]3(c4ccc(Cl)c(Cl)c4)CCC(=O)N(CC4CC4)C3)C2)CC1` has a Caco-2 permeability of 34 % hr-1. For `O=C1CC[C@](CCN2CC(N3CCC(F)CC3)C2)(c2ccc(Cl)c(Cl)c2)CN1CC1CCC(F)(F)CC1`, the Caco-2 permeability was greater than 35 % hr-1.

Species on record: Homo sapiens
Test: Ratio of apical basolateral (A-B) and basolateral apical (B-A) determined by Caco-2 assay in human
Assay type: ADME
Settings: not given
With `NC1CCN(C2CN(CC[C@]3(c4ccc(Cl)c(Cl)c4)CCC(=O)N(CC4CCC(F)(F)CC4)C3)C2)CC1` the Caco-2 permeability was less than 1 % hr-1.

Species on record: Homo sapiens
Test: Ratio of apical basolateral (A-B) and basolateral apical (B-A) determined by Caco-2 assay in human (ratio=2/3)
Assay type: ADME
Settings: not given
With `NC1CCN(C2CN(CC[C@]3(c4ccc(Cl)c(Cl)c4)CCC(=O)N(CC4CC4)C3)C2)CC1` the Caco-2 permeability was “Permeable”.

Target: T1, Substance-K receptor
Test: pA2 for NK2 receptor of Human bladder
Assay type: functional
Settings: read-out: pA2 (converted)
With `NS(=O)(=O)N1CCN(C2CN(CC[C@]3(c4ccc(Cl)c(Cl)c4)CCC(=O)N(CC4CC4)C3)C2)CC1` the Kb was 1.58 nM.

Target: Substance-P receptor (Homo sapiens, UniProt P25103)
Sequence (P25103 whole entry): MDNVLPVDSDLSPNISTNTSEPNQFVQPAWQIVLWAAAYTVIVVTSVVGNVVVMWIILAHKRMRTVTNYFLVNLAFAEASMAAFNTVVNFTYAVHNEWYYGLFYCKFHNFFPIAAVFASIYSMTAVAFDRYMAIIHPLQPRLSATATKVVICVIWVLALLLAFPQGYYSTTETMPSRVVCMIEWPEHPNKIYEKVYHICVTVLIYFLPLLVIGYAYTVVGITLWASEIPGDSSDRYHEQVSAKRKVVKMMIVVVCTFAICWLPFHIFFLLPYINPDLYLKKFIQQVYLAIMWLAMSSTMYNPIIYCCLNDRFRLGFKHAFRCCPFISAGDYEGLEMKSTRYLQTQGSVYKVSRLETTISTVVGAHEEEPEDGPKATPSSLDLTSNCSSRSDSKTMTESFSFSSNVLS
Test: Inhibitory concentration for Tachykinin 1 receptor of human IM9 cells
Assay type: cell-based, IM-9
Settings: not given
With `O=C1CC[C@](CCN2CC(N3CCC(F)CC3)C2)(c2ccc(Cl)c(Cl)c2)CN1CC1CCC(F)(F)CC1` the IC50 was greater than 10000 nM.

Target: T1, Substance-K receptor
Test: Inhibition of human Neurokinin 2 receptor
Settings: not given
`CCOC1CCN(C2CN(CC[C@]3(c4ccc(Cl)c(Cl)c4)CCC(=O)N(CC4CC4)C3)C2)CC1` showed an IC50 of 15.8 nM. With `O=C1CC[C@](CCN2CC(N3CCC(F)CC3)C2)(c2ccc(Cl)c(Cl)c2)CN1CC1CCC(F)(F)CC1` the IC50 was 0.398 nM. Molecule `CS(=O)(=O)N1CCN(C2CN(CC[C@]3(c4ccc(Cl)c(Cl)c4)CCC(=O)N(CC4CC4)C3)C2)CC1` has an IC50 of 7.94 nM. With `NS(=O)(=O)N1CCN(C2CN(CC[C@]3(c4ccc(Cl)c(Cl)c4)CCC(=O)N(CC4CC4)C3)C2)CC1` the IC50 was 3.98 nM. Work on `NC1CCN(C2CN(CC[C@]3(c4ccc(Cl)c(Cl)c4)CCC(=O)N(CC4CC4)C3)C2)CC1` yielded an IC50 of 6.31 nM. In the case of `NC1CCN(C2CN(CC[C@]3(c4ccc(Cl)c(Cl)c4)CCC(=O)N(CC4CCC(F)(F)CC4)C3)C2)CC1`, the IC50 is reported as 1 nM.

Species on record: Homo sapiens
Test: Ratio of apical basolateral (A-B) and basolateral apical (B-A) determined by Caco-2 assay in human; (ratio=1/18)
Assay type: ADME
Settings: not given
With `NS(=O)(=O)N1CCN(C2CN(CC[C@]3(c4ccc(Cl)c(Cl)c4)CCC(=O)N(CC4CC4)C3)C2)CC1` the Caco-2 permeability was “Permeable”.

Tested on: not listed separately
Test: Distribution coefficient (Log D) value at pH 7.4
Assay type: physicochemical
Settings: octanol/water
Work on `NS(=O)(=O)N1CCN(C2CN(CC[C@]3(c4ccc(Cl)c(Cl)c4)CCC(=O)N(CC4CC4)C3)C2)CC1` yielded a logD of 1.7. For `NC1CCN(C2CN(CC[C@]3(c4ccc(Cl)c(Cl)c4)CCC(=O)N(CC4CCC(F)(F)CC4)C3)C2)CC1`, the logD was 0.1.

Species on record: Homo sapiens
Test: Ratio of apical basolateral (A-B) and basolateral apical (B-A) determined by Caco-2 assay in human (ER=60/60)
Assay type: ADME
Settings: not given
With `O=C1CC[C@](CCN2CC(N3CCC(F)CC3)C2)(c2ccc(Cl)c(Cl)c2)CN1C1(C2CC2)CCCC1` the Caco-2 permeability was “Permeable”.

Tested on: not listed separately
Test: Half life in human microsomal liver cells
Assay type: ADME
Settings: liver microsomes
With `O=C1CC[C@](CCN2CC(N3CCC(F)CC3)C2)(c2ccc(Cl)c(Cl)c2)CN1C1(C2CC2)CCCC1` the half-life was 2 min. In the case of `O=C1CC[C@](CCN2CC(N3CCC(F)CC3)C2)(c2ccc(Cl)c(Cl)c2)CN1CC1CCC(F)(F)CC1`, the half-life is reported as greater than 120 min. With `CS(=O)(=O)N1CCN(C2CN(CC[C@]3(c4ccc(Cl)c(Cl)c4)CCC(=O)N(CC4CC4)C3)C2)CC1` the half-life was less than 10 min. Work on `O=C1CC[C@](CCN2CC(N3CCOCC3)C2)(c2ccc(Cl)c(Cl)c2)CN1C1(C2CC2)CCCC1` yielded a half-life of less than 1 min. With `NS(=O)(=O)N1CCN(C2CN(CC[C@]3(c4ccc(Cl)c(Cl)c4)CCC(=O)N(CC4CC4)C3)C2)CC1` the half-life was greater than 120 min.

Target: T2, Substance-K receptor (Oryctolagus cuniculus, UniProt P79218)
T2 sequence (P79218 whole entry): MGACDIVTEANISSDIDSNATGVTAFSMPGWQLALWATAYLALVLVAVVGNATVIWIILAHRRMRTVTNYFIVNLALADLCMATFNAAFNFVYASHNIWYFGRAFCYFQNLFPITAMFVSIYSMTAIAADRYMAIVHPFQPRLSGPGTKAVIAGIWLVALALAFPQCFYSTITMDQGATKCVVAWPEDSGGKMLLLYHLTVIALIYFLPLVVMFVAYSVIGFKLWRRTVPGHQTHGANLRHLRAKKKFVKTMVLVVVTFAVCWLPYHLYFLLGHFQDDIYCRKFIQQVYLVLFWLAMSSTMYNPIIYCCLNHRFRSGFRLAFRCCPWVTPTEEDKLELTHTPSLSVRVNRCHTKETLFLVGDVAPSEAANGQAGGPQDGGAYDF
Test: pA2 for NK2 receptor of rabbit pulmonary artery
Assay type: functional
Settings: read-out: pA2 (converted)
With `CCOC1CCN(C2CN(CC[C@]3(c4ccc(Cl)c(Cl)c4)CCC(=O)N(CC4CC4)C3)C2)CC1` the Kb was 6.31 nM. `CS(=O)(=O)N1CCN(C2CN(CC[C@]3(c4ccc(Cl)c(Cl)c4)CCC(=O)N(CC4CC4)C3)C2)CC1` gave a Kb of 3.16 nM. Molecule `O=C1CC[C@](CCN2CC(N3CCOCC3)C2)(c2ccc(Cl)c(Cl)c2)CN1C1(C2CC2)CCCC1` has a Kb of 0.251 nM. With `NS(=O)(=O)N1CCN(C2CN(CC[C@]3(c4ccc(Cl)c(Cl)c4)CCC(=O)N(CC4CC4)C3)C2)CC1` the Kb was 1.26 nM. Molecule `NC1CCN(C2CN(CC[C@]3(c4ccc(Cl)c(Cl)c4)CCC(=O)N(CC4CC4)C3)C2)CC1` has a Kb of 2 nM. Molecule `NC1CCN(C2CN(CC[C@]3(c4ccc(Cl)c(Cl)c4)CCC(=O)N(CC4CCC(F)(F)CC4)C3)C2)CC1` has a Kb of 0.2 nM.
